Each compound was assayed against T1, AgaCA (Anopheles gambiae, UniProt Q5TU56) (assay: biochemical). Conditions: not given.
T1 construct: gene 1272966; full-length beta-CA, C-terminal thrombin site and His6 tag (tag removed by thrombin), baculovirus/Sf9
T1 sequence (Q5TU56 1-255): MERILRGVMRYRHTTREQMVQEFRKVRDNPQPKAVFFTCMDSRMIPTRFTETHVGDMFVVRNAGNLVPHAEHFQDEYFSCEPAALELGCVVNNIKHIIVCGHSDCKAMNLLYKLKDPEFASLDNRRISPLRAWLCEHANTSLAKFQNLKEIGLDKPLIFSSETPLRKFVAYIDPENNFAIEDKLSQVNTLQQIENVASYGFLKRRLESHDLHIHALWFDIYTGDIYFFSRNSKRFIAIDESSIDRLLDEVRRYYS

**Q.** How did the Ki turn out when `O=P(O)(O)OP(=O)(O)O` [P2O7^4−] was run?
**A.** The Ki was 8.52 mM.

**Q.** Which Ki does the source give for `N#CS` [SCN^−] here?
**A.** Its Ki is 6.41 mM.

**Q.** For `O=S(=O)(O)O` [SO4^2−], which Ki is on record?
**A.** The Ki was 9.03 mM.

Same assay, conditions: read-out: AgaCA^c

**Q.** For `N#CO` [CNO^−], which Ki is on record?
**A.** The Ki was 9.46 mM.

**Q.** How did the Ki turn out when `S=C(S)S` [CS3^2−] was run?
**A.** Its Ki is 8.19 mM.

**Q.** `Cl` [Cl^−] was tested. Which Ki did it give?
**A.** Its Ki is 8.74 mM.

**Q.** For `CCN(CC)C(=S)S` [Et2NCS2^−], which Ki is on record?
**A.** Its Ki is 0.65 mM.

**Q.** How did the Ki turn out when `F` [F^−] was run?
**A.** The Ki was 9.42 mM.

**Q.** With `NS(N)(=O)=O` [H2NSO2NH2] as the compound, how does the Ki read?
**A.** The Ki was 0.054 mM.

**Q.** Which Ki does the source give for `S` [HS^−] here?
**A.** The Ki was 25.1 mM.

**Q.** How did the Ki turn out when `O=NO` [NO2^−] was run?
**A.** The Ki was 4.55 mM.

**Q.** `O=[N+]([O-])O` [NO3^−] was tested. Which Ki did it give?
**A.** The Ki was 6.5 mM.

**Q.** For `OB(O)c1ccccc1` [Ph-B(OH)2], which Ki is on record?
**A.** The Ki was 0.047 mM.

**Q.** For `N#C[SeH]` [SeCN^−], which Ki is on record?
**A.** Its Ki is 8.68 mM.

**Q.** For `O=[Se](=O)(O)O` [SeO4^2−], which Ki is on record?
**A.** Its Ki is 9.41 mM.

**Q.** `[O]=[Sn]([OH])[OH]` [SnO3^2−] was tested. Which Ki did it give?
**A.** Its Ki is 1.8 mM.

**Q.** With `O=[Te](=O)(O)O` [TeO4^2−] as the compound, how does the Ki read?
**A.** The Ki was 4.96 mM.

**Q.** `[O]=[V]([OH])([OH])[O][V](=[O])([OH])[OH]` [V2O7^4−] was tested. Which Ki did it give?
**A.** The Ki was 7.98 mM.

Same assay, conditions: read-out: KI [mM]^e / hCA I^a

**Q.** `NS(=O)(=O)O` [H2NSO3H] was tested. Which Ki did it give?
**A.** The Ki was 0.021 mM.

From publication PMC6009871, “Anion inhibition studies of a beta carbonic anhydrase from the malaria mosquito Anopheles gambiae” (Journal of Enzyme Inhibition and Medicinal Chemistry, 2018)
